According to patent US5607926A, “Cephalosporin antibiotics” (Microcide Pharmaceuticals, Inc., priority 1995, dated 1997):
Values after ≈ are worked out from the molar mass of the structure shown. Structures can show the parent of a compound that is named as a salt. Where two headings read alike, the source gives them in different places.

Tests used:
Assay type in all cases: cell-based
[1] = test system: S. epidermidis ATCC 31432; assay: In vitro antibacterial evaluation, MIC by agar dilution, S. epidermidis ATCC 31432; conditions: Staphylococcus epidermidis, ATCC31432
Procedure: (§1) The compounds of the invention were evaluated against several β-lactamresistant bacteria strains by determining the minimum inhibitory concentration (MIC, μg/ml) of each compound with respect to each strain. The MIC, the lowest concentration of antibiotic which inhibits growth of the test organism, was determined by the agar dilution method.
(§2) To determine the MIC for bacterial isolates, the test compound was incorporated in a series of two-fold dilutions into liquified Mueller-Hinton agar. Upon solidification, a number of different bacterial strains were spot inoculated with a replicating device onto the agar surface. […] The procedures used in these studies have been standardized by the National Committee for Clinical Laboratory Standards (NCCLS), as per the NCCLS publication entitled METHODS FOR DILUTION ANTIMICROBIAL SUSCEPTIBILITY TESTS (1991), which is incorporated herein by reference.
(§3) Aliquots of antimicrobial agents were prepared in phosphate buffered saline (PBS) at pH 7.2. Tween 20 or DMSO was used as a solubilizing vehicle as needed. Standard methods of vortexing, sonicating and gentle heat were used to facilitate solubilizing the test agent. Typically, the concentration of the stock solution was 10× that of the highest drug concentration tested. A 1.28 mg/mL stock solution was used with a subsequent highest working concentration of 128 μg/mL. Serial two-fold dilutions were done through ≤0.25 μg/mL. Each drug level was tested in duplicate. Two-fold drug dilutions were done in sterile 50 mL tubes with a final drug volume of 5 mL. Upon the addition of 45 mL of molten agar, a 10-fold dilution resulted. Two, 25 mL. plates were then poured into 15×150 mm square Petri plates with grids and allowed to harden.
(§4) A control plate with a reference drug, either cefotaxime, vancomycin or imipenem, was used as the positive growth control. Stock concentrations of reference antibiotics were prepared and frozen at -80° C. Upon preparation, the control plates were sealed and stored in the refrigerator for up to 1 week prior to use; however, imipenem control plates had to be prepared just prior to use. All test plates were used within 24 hours of preparation.
(§5) Satisfactory results were obtained where the inoculum contained about 10^4 colony forming units (cfu) ±0.5 logs. Starting with pure cultures of the test isolates on agar plates, a few isolated colonies were transferred to a tube of nutrient broth and allowed to grow 4-6 hours at 35°-36° C. to reach log-phase growth. Dropwise addition of the broth culture to PBS was done to match a 0.5 McFarland turbidity standard equal to 10^8 cfu/mL. This was further diluted ten-fold in PBS to reach a working inoculum concentration of 10^7 cfu/mL. When 1 μL of the working inoculum was applied to the agar surface a concentration of about 10^4 cfu per spot was obtained.
(§6) Disposable sterile 1 μL loops were used to inoculate test plates, with each isolate in a designated grid on the agar plate. An alternate method of inoculation involved the use of a replica plater, a device with 48 steel pins allowing the simultaneous inoculation of multiple isolates. After the spots had dried, the plates were incubated at 35°-36° C. for 16-20 hours. Endpoints were assessed as the minimum inhibitory concentration (MIC) of antimicrobial agent.

E. coli ATCC 25922 = assay: In vitro antibacterial evaluation, MIC by agar dilution, E. coli ATCC 25922; conditions: Escherichia coli, ATCC25922, read-out: MIC
Procedure: as §1, §2, §3, §4, §5, §6

[2] = test system: S. aureus 76 (Meth^R)(lac^+); assay: In vitro antibacterial evaluation, MIC by agar dilution, S. aureus 76; conditions: Staphylococcus aureus, read-out: MIC
Procedure: as §1, §2, §3, §4, §5, §6

E. faecium ATCC 35667 = assay: In vitro antibacterial evaluation, MIC by agar dilution, E. faecium ATCC 35667; conditions: Enterococcus faecium, ATCC35667, read-out: MIC
Procedure: as §1, §2, §3, §4, §5, §6

S. haemolyticus (Meth^R) = assay: In vitro antibacterial evaluation, MIC by agar dilution, S. haemolyticus; conditions: Staphylococcus haemolyticus, read-out: MIC
Procedure: as §1, §2, §3, §4, §5, §6

[3] = test system: S. aureus Col8A (Meth^S)(lac^-); assay: In vitro antibacterial evaluation, MIC by agar dilution, S. aureus Col8A; conditions: Staphylococcus aureus
Procedure: as §1, §2, §3, §4, §5, §6
The novel agents of this invention are notable for their enhanced activity against S. aureus Col and Enterococci (E. faecium and E. faecalis). The S. aureus Col strain is a high-level PBP2a producer, whereas S. aureus Col 8A, its isogenic partner, lacks PBP2a. […] Thus, the compounds of the present invention are effective against PBP2a-producing bacteria.

S. aureus ATCC 29213 = assay: In vitro antibacterial evaluation, MIC by agar dilution, S. aureus ATCC 29213; conditions: Staphylococcus aureus, ATCC29213
Procedure: as §1, §2, §3, §4, §5, §6

E. faecalis ATCC 29212 = assay: In vitro antibacterial evaluation, MIC by agar dilution, E. faecalis ATCC 29212; conditions: Enterococcus faecalis, ATCC29212; E. faecalis ATCC 29212; read-out: MIC
Procedure: as §1, §2, §3, §4, §5, §6

P. aeruginosa ATCC 27853 = assay: In vitro antibacterial evaluation, MIC by agar dilution, P. aeruginosa ATCC 27853; conditions: Pseudomonas aeruginosa, ATCC27853, read-out: MIC
Procedure: as §1, §2, §3, §4, §5, §6

[4] = S. epidermidis ATCC 31432, read-out: MIC
[5] = S. aureus ATCC 29213, read-out: MIC

| SMILES | MIC [1, 4] | MIC (E. coli ATCC 25922) | MIC [2] | MIC (E. faecium ATCC 35667) | MIC (S. haemolyticus (Meth^R)) | MIC [1] | MIC [3] | MIC (S. aureus ATCC 29213) | MIC (S. aureus ATCC 29213; [5]) | MIC (E. faecalis ATCC 29212) | MIC (P. aeruginosa ATCC 27853) |
| --- | --- | --- | --- | --- | --- | --- | --- | --- | --- | --- | --- |
| O=C(Cc1ccccc1)N[C@@H]1C(=O)N2C(C(=O)O)=C(Sc3cc(Cl)ccc3Cl)CS[C@H]12 [Cmpd 16, (7R)-7-[(Phenylacetyl)amino]-3-(2,5-dichlorophenylthio)-3-cephem-4-carboxylic acid] | < 0.5 µg/mL | > 16 µg/mL | 4 µg/mL (≈ 8.07 µM) | 4 µg/mL (≈ 8.07 µM) | 16 µg/mL (≈ 32.3 µM) | – | – | – | – | – | – |
| O=C(Cc1ccccc1)N[C@@H]1C(=O)N2C(C(=O)O)=C(Sc3ccc(Cl)c(Cl)c3)CS[C@H]12 [Cmpd 18, (7R)-7-[(Phenylacetyl)amino]-3-(3,4-dichlorophenylthio)-3-cephem-4-carboxylic acid] | – | > 32 µg/mL | 16 µg/mL (≈ 32.3 µM) | 4 µg/mL (≈ 8.07 µM) | 32 µg/mL (≈ 64.6 µM) | < 0.25 µg/mL | < 0.25 µg/mL | < 0.25 µg/mL | – | – | – |
| COC(=O)c1ccccc1SC1=C(C(=O)O)N2C(=O)[C@@H](NC(=O)Cc3ccccc3)[C@H]2SC1 [Cmpd 19, (7R)-7-[(Phenylacetyl)amino]-3-(o-carbomethoxyphenylthio)-3-cephem-4-carboxylic acid] | – | > 32 µg/mL | 16 µg/mL (≈ 33 µM) | 2 µg/mL (≈ 4.13 µM) | 32 µg/mL (≈ 66 µM) | < 0.25 µg/mL | < 0.25 µg/mL | < 0.25 µg/mL | – | – | – |
| O=C(Cc1cccs1)N[C@@H]1C(=O)N2C(C(=O)O)=C(Sc3ccccc3Br)CS[C@H]12 [Cmpd 20, (7R)-7-[(2-Thienylacetyl)amino]-3-(o-bromophenylthio)-3-cephem-4-carboxylic acid] | – | > 32 µg/mL | 4 µg/mL (≈ 7.82 µM) | 2 µg/mL (≈ 3.91 µM) | 8 µg/mL (≈ 15.6 µM) | < 0.25 µg/mL | < 0.25 µg/mL | < 0.25 µg/mL | – | – | – |
| O=C(Cc1ccccc1)N[C@@H]1C(=O)N2C(C(=O)O)=C(Sc3cccc4oc5ccccc5c34)CS[C@H]12 [Cmpd 21, (7R)-7-[(Phenylacetyl)amino]-3-(dibenzofuranyl-1-thio)-3-cephem-4-carboxylic acid] | – | > 32 µg/mL | 4 µg/mL (≈ 7.74 µM) | 4 µg/mL (≈ 7.74 µM) | 32 µg/mL (≈ 61.9 µM) | < 0.25 µg/mL | < 0.25 µg/mL | < 0.25 µg/mL | – | – | – |
| Nc1nc(/C(=N/O)C(=O)N[C@@H]2C(=O)N3C(C(=O)O)=C(Sc4ccccc4I)CS[C@H]23)cs1 [Cmpd 22, (7R)-7-[(Z)-2-(aminothiazol-4-yl)-2-(hydroxyimino)acetamido]-3-(o-iodophenylthio)-3-cephem-4-carboxylic acid] | < 0.25 µg/mL | 4 µg/mL (≈ 6.63 µM) | 4 µg/mL (≈ 6.63 µM) | 2 µg/mL (≈ 3.31 µM) | 4 µg/mL (≈ 6.63 µM) | – | 0.5 µg/mL (≈ 0.829 µM) | – | < 0.25 µg/mL | – | – |
| N#Cc1ccc(-c2ccccc2SC2=C(C(=O)O)N3C(=O)[C@@H](NC(=O)Cc4ccccc4)[C@H]3SC2)cc1 [Cmpd 23, (7R)-7-[(Phenylacetyl)amino]-3-(2-(4-cyanophenyl)phenylthio)-3-cephem-4-carboxylic acid] | – | > 32 µg/mL | 8 µg/mL (≈ 15.2 µM) | 2 µg/mL (≈ 3.79 µM) | 16 µg/mL (≈ 30.3 µM) | < 0.25 µg/mL | < 0.25 µg/mL | < 0.25 µg/mL | – | – | – |
| O=C(Cc1ccccc1)N[C@@H]1C(=O)N2C(C(=O)O)=C(Sc3cccc(Cl)c3Cl)CS[C@H]12 [Cmpd 24, (7R)-7-[(Phenylacetyl)amino]-3-(2,3-dichlorophenylthio)-3-cephem-4-carboxylic acid] | – | > 32 µg/mL | 4 µg/mL (≈ 8.07 µM) | 2 µg/mL (≈ 4.04 µM) | 8 µg/mL (≈ 16.1 µM) | < 0.25 µg/mL | < 0.25 µg/mL | < 0.25 µg/mL | – | – | – |
| N=C(N)SCc1ccccc1SC1=C(C(=O)O)N2C(=O)[C@@H](NC(=O)Cc3ccc(CN)cc3)[C@H]2SC1 [Cmpd 124, (7R)-7-[((4-aminomethylphenyl)acetyl)amino]-3-(2-isothiouroniummethylphenylthio)-3-cephem-4-carboxylate, trifluoroacetic acid salt] | – | > 32 µg/mL | 16 µg/mL | 1 µg/mL | 16 µg/mL | – | 0.25 µg/mL | 0.25 µg/mL | – | 1 µg/mL | > 32 µg/mL |
| O=C(Cc1ccccc1)N[C@@H]1C(=O)N2C(C(=O)O)=C(Sc3ccccc3-n3cccn3)CS[C@H]12 [Cmpd 132, (7R)-7-[(Phenylacetyl)amino]-3-(2-(pyrazol-1-yl)phenylthio)-3-cephem-4-carboxylic acid] | – | > 32 µg/mL | 32 µg/mL (≈ 65 µM) | 4 µg/mL (≈ 8.12 µM) | > 32 µg/mL | – | 0.25 µg/mL (≈ 0.508 µM) | – | 0.125 µg/mL (≈ 0.254 µM) | 4 µg/mL (≈ 8.12 µM) | > 32 µg/mL |
| CSCC(=O)N[C@@H]1C(=O)N2C(C(=O)O)=C(Sc3ccccc3CSC(=N)NN)CS[C@H]12 [Cmpd 133, (7R)-7-[(methylthioacetyl)amino]-3-(2-(N-amino)isothiouroniummethylphenylthio)-3-cephem-4-carboxylate, inner salt] | – | > 32 µg/mL | 8 µg/mL | 1 µg/mL | 16 µg/mL | – | 0.125 µg/mL | 0.125 µg/mL | – | 1 µg/mL | > 32 µg/mL |
| N=C(N)SCc1ccccc1SC1=C(C(=O)O)N2C(=O)[C@@H](NC(=O)CSCCCI)[C@H]2SC1 [Cmpd 134, (7R)-7-[(3-iodoprop-1-ylthioacetyl)amino]-3-(2-isothiouroniummethylphenylthio)-3-cephem-4-carboxylate, inner salt] | – | > 32 µg/mL | 8 µg/mL | 1 µg/mL | 16 µg/mL | – | 0.125 µg/mL | 0.125 µg/mL | – | 0.5 µg/mL | > 32 µg/mL |
| CSCC(=O)N[C@@H]1C(=O)N2C(C(=O)O)=C(Sc3ccccc3CNC(=N)N)CS[C@H]12 [Cmpd 135, (7R)-7-[(Methylthioacetyl)amino]-3-(2-guanidiniummethylphenylthio)-3-cephem-4-carboxylate, inner salt] | – | > 32 µg/mL | 16 µg/mL | 2 to 4 µg/mL | 32 µg/mL | – | ≤ 0.06 µg/mL | – | 0.125 µg/mL | 2 to 4 µg/mL | > 32 µg/mL |
